Assay results: ChEMBL document CHEMBL1138945, “Development of N-4,6-pyrimidine-N-alkyl-N'-phenyl ureas as orally active inhibitors of lymphocyte specific tyrosine kinase” (Bioorg Med Chem Lett, 2006)
In brackets after ≈: the same amount, converted by molar mass.

Key:
[1] = biological target: Tyrosine-protein kinase Lck (Homo sapiens, UniProt P06239); assay: Inhibition of Lck
[2] = Intrinsic clearance in rat hepatocytes after 1 hr at 1 uM; assay type: ADME, cell-based, Liver, Hepatocyte
[3] = Oral bioavailability in rat; assay type: ADME, organism-based; conditions: in vivo
[4] = Aqueous solubility of the compound; assay type: physicochemical; conditions: buffer
Jurkat = assay: Inhibition of IL2 production in Jurkat E6-1 T cell line; assay type: functional, cell-based; conditions: Homo sapiens
[5] = Cmax in orally dosed rat; assay type: ADME, organism-based; parameters: route oral; conditions: in vivo, po
Rattus norvegicus = assay: Inhibition of adjuvant-induced hind paw swelling in Lewis rat at 25 mg/kg, po after 7 days relative to control; assay type: functional; conditions: 168 h

Sequence of Tyrosine-protein kinase Lck (P06239 whole entry): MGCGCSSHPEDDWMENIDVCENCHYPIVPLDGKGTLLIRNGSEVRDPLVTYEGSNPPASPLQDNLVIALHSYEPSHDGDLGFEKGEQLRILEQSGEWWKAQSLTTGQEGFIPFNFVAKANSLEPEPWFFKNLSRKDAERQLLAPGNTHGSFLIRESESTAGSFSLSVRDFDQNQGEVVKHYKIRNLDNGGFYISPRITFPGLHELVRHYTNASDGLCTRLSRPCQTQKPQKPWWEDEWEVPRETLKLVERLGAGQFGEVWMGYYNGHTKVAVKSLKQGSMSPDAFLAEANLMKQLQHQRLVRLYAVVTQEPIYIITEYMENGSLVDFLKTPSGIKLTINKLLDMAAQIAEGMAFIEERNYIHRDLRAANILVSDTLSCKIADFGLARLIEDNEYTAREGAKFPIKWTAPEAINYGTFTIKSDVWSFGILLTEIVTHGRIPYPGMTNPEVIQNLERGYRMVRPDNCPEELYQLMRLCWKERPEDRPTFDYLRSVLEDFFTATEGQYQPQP

Compound | IC50 [1] [µM] | other results
CN(C)CCCN(C(=O)Nc1c(Cl)cccc1Cl)c1cc(Nc2ccc(N3CCOCC3)cc2)ncn1 | 0.155 | 
CCN(CC)CCOc1ccc(Nc2cc(N(C)C(=O)Nc3cc(O)ccc3C)ncn2)cc1 | 0.003 | CLint scaled at 1 µM [2]: 108 mL/min/kg; bioavailability [3]: 1%; solubility [4]: 41 µg/mL (≈ 88.3 µM); IC50 (Jurkat): 0.064 µM; Cmax [5]: 3 ng/mL
CCN(CC)c1ccc(Nc2cc(N(C)C(=O)Nc3ccccc3Cl)ncn2)cc1 | 3.13 | 
CCN(CC)CCOc1ccc(Nc2cc(N(C)C(=O)Nc3ccccc3OC)ncn2)cc1 | > 10 | 
CN(C(=O)Nc1ccccc1Cl)c1cc(Nc2ccc(F)cc2)ncn1 | 1.82 | 
CCN(CC)CCOc1ccc(Nc2cc(N(C)C(=O)Nc3cc(C(=O)Nc4cccc(C(F)(F)F)c4)ccc3C)ncn2)cc1 | 0.032 | 
CCN(CC)CCOc1ccc(Nc2cc(N(C)C(=O)Nc3cc(NC(=O)c4cc5ccccc5n4C)ccc3C)ncn2)cc1 | 0.149 | 
CN(C)CCCNc1cc(N(C)C(=O)Nc2c(Cl)cccc2Cl)ncn1 | 5.99 | 
O=C(Nc1c(Cl)cccc1Cl)N(c1ccncc1)c1cc(Nc2ccc(N3CCOCC3)cc2)ncn1 | > 10 | 
Cc1cccc(Cl)c1NC(=O)N(C)c1cc(Nc2ccc(N3CCOCC3)cc2)ncn1 | 0.19 | 
CN(C(=O)Nc1ccccc1Cl)c1cc(Nc2ccc(N3CCOCC3)cc2)ncn1 | 4.29 | 
CN(C(=O)Nc1c(Cl)cccc1Cl)c1cc(Nc2ccc(F)cc2)ncn1 | 3.86 | 
CCN(CC)CCOc1ccc(Nc2cc(N(C)C(=O)Nc3c(C)cccc3Cl)ncn2)cc1 | 0.028 | CLint scaled at 1 µM [2]: 25 mL/min/kg; solubility [4]: 34 µg/mL (≈ 70.4 µM); IC50 (Jurkat): 3.1 µM
CCN(CC)CCOc1ccc(Nc2cc(N(C)C(=O)Nc3c(Cl)cccc3C(F)(F)F)ncn2)cc1 | 0.096 | 
CCN(CC)CCNc1cc(N(C)C(=O)Nc2c(Cl)cccc2Cl)ncn1 | > 10 | 
CCN(CC)CCOc1ccc(Nc2cc(N(C)C(=O)Nc3c(Cl)cccc3Cl)ncn2)cc1 | 0.087 | inhibition in vivo at 25 mg/kg (Rattus norvegicus): 63%; CLint scaled at 1 µM [2]: 40 mL/min/kg; bioavailability [3]: 66%; solubility [4]: 38 µg/mL (≈ 75.5 µM); IC50 (Jurkat): 0.862 µM; Cmax [5]: 394 ng/mL
CCN(CC)CCOc1ccc(Nc2cc(N(CCCN(C)C)C(=O)Nc3c(Cl)cccc3Cl)ncn2)cc1 | 0.229 | 
CN(C(=O)Nc1c(Cl)cccc1Cl)c1cc(NC2CCOCC2)ncn1 | > 10 | 
Cc1cccc(Cl)c1NC(=O)N(C)c1cc(Nc2ccc(N3CCN(C)CC3)cc2)ncn1 | 0.009 | solubility [4]: 2 µg/mL (≈ 4.29 µM); IC50 (Jurkat): 0.749 µM

Compound | IC50 [1] [µM] | other results
CCN(CC)c1ccc(Nc2cc(N(CCCN(C)C)C(=O)Nc3ccccc3Cl)ncn2)cc1 | 4.49 | 
CN1CCN(c2ccc(Nc3cc(N(C)C(=O)Nc4ccccc4Cl)ncn3)cc2)CC1 | 0.708 | 
CCN(CC)CCOc1ccc(Nc2cc(N(C)C(=O)Nc3cc(OC)ccc3C)ncn2)cc1 | 2.58 | 
CN1CCN(c2ccc(Nc3cc(N(C)C(=O)Nc4c(Cl)cccc4Cl)ncn3)cc2)CC1 | 0.006 | 
CCN(CC)c1ccc(Nc2cc(N(CCCN(C)C)C(=O)Nc3c(C)cccc3Cl)ncn2)cc1 | 0.971 | 
CCN(CC)CCOc1ccc(Nc2cc(N(C)C(=O)Nc3c(F)cccc3F)ncn2)cc1 | 0.418 | 
CNc1cc(N(CCCN(C)C)C(=O)Nc2c(Cl)cccc2Cl)ncn1 | 2.35 | 
CCN(CC)CCOc1ccc(Nc2cc(N(C)C(=O)Nc3cc(NC(=O)c4cc5ccccc5s4)ccc3C)ncn2)cc1 | 0.052 | 
CCN(CC)CCOc1ccc(Nc2cc(N(C)C(=O)Nc3cc(NC(=O)c4cccc(C(F)(F)F)c4)ccc3C)ncn2)cc1 | 0.003 | solubility [4]: 3 µg/mL (≈ 4.72 µM); IC50 (Jurkat): < 0.01 µM
CCN(CC)CCOc1ccc(Nc2cc(N(C)C(=O)Nc3cc(C(=O)Nc4cc(C(C)(C)C)on4)ccc3C)ncn2)cc1 | 0.004 | solubility [4]: 1 µg/mL (≈ 1.63 µM); IC50 (Jurkat): < 0.01 µM
CN1CCN(N(C(=O)Nc2c(Cl)cccc2Cl)c2cc(Nc3ccc(N4CCOCC4)cc3)ncn2)CC1 | 0.23 | 
CN(C(=O)Nc1c(Cl)cccc1Cl)c1cc(Nc2ccc(N3CCOCC3)cc2)ncn1 | 0.301 | CLint scaled at 1 µM [2]: 48 mL/min/kg; bioavailability [3]: 0%; solubility [4]: 3 µg/mL (≈ 6.34 µM); IC50 (Jurkat): 2.9 µM; Cmax [5]: 9 ng/mL
CN(C(=O)Nc1c(Cl)cccc1Cl)c1cc(NCCN2CCOCC2)ncn1 | > 10 | 
CCN(CC)c1ccc(Nc2cc(N(Cc3ccccc3)C(=O)Nc3ccccc3Cl)ncn2)cc1 | > 10 | 
Cc1ccc(O)cc1NC(=O)N(C)c1cc(Nc2ccc(N3CCOCC3)cc2)ncn1 | 0.004 | 
CCN(CC)CCOc1ccc(N(C(=O)Nc2c(Cl)cccc2Cl)c2cc(NC)ncn2)cc1 | > 10 | 
Cc1cccc(Cl)c1NC(=O)N(Cc1ccccc1)c1cc(Nc2ccc(F)cc2)ncn1 | 1.45 | 
CCN(CC)c1ccc(Nc2cc(N(Cc3ccc(N(C)C)cc3)C(=O)Nc3ccccc3Cl)ncn2)cc1 | > 10 | 
